{"source": "patent US20260265694A1", "about": "“USE OF A VITISIN COMPOUND FOR THE PRODUCTION OF HEMATOPOIETIC CELLS” (ETABLISSEMENT FRANCAIS DU SANG, priority 2022, published 2026)", "key": {"[1]": {"test_system": "CMP isolated from peripheral blood CD34+ cells", "test": "ERYTHRO 1 PROTOCOL on sorted CMP cells", "format": "cell-based, human", "conditions": "CMPs, 10 μM", "description": "(§1) b. Isolation of CMP and MEP Progenitors The CD34^+ cells previously isolated via an immunomagnetic technique were marked with anti-CD34-BV421 (1:100 000), anti-CD45RA-BB517 (1:100 000), anti-CD123-Alexa647 (1.5:100 000) antibodies (BD Pharmingen) and a cocktail of anti-LIN-PE antibodies (2:100 000) for 15 minutes. The LIN cocktail antibodies are directed against markers specific to mature cells (CD2, CD3, CD4, CD7, CD8, CD10, CD11b, CD14, CD19, CD20, CD56, CD235a). This LIN cocktail thus allows enrichment in “LIN^neg” immature cells by depletion of mature cells. After incubation with these antibodies, the cells are rinsed with a solution of PBS^+ (PBS+2% Fetal Calf Serum (FCS)) and centrifuged (430×g, 10 min. 4° C.). After resuspension of the cells in PBS^+, CMPs with the phenotype CD34^+LIN^negCD123^+CD45RA^neg and MEPs with the phenotype CD34^+LIN^negCD123^negCD45RA^neg are sorted and harvested using an ARIA cell sorter (Manz et al., 2002). c. Isolation of BFU-E and CFU-E Progenitors Placental blood CD34^+ cells, previously isolated by immunomagnetic sorting, are marked with antibodies specific to surface antigens allowing them to target and discriminate BFU-E primitive erythrocyte progenitors, namely anti-CD34, anti-GPA, anti CD123 and anti-CD36 antibodies. Primitive erythrocyte progenitors (BFU-Es) are defined by the following phenotype: CD34^+CD123^negCD36^negGPA^neg. […]"}, "[2]": {"test_system": "MEP isolated from peripheral blood CD34+ cells", "test": "ERYTHRO 1 PROTOCOL on sorted MEP cells", "format": "cell-based, human", "conditions": "MEPs, 10 μM", "description": "as §1"}}}
{"compound": "Oc1ccc(C2Oc3ccc(/C=C/c4cc(O)cc5c4[C@H](c4cc(O)cc(O)c4)[C@@H](c4ccc(O)cc4)O5)cc3C2c2cc(O)cc3c2C(c2cc(O)cc(O)c2)C(c2ccc(O)cc2)O3)cc1", "note": "(stereo in doubt) [vitisin B, 5-[(2R,2'S,3R,3'S)-5-[(1E)-2-[(2S,3S)-3-(3,5-Dihydroxyphenyl)-2,3-dihydro-6-hydroxy-2-(4-hydroxyphenyl)-4-benzofuranyl]ethenyl]-2,2′,3,3′-tetrahydro-6′-hydroxy-2,2′-bis(4-hydroxyphenyl)[3,4′-bibenzofuran]-3′-yl]-1,3-benzenediol]", "values": [{"measurement": "erythrocyte differentiation (acquisition of the phenotype CD71+GPA+)", "setting": "[1]; FIG. 4A", "result": "acceleration of erythrocyte differentiation"}, {"measurement": "reduction relative to the control in CD71 membrane expression", "setting": "[1]; as early as D7, FIG. 4B", "result": "up to 40%"}, {"measurement": "erythrocyte differentiation (acquisition of the phenotype CD71+GPA+)", "setting": "[2]; FIG. 4A", "result": "acceleration of erythrocyte differentiation"}, {"measurement": "reduction relative to the control in CD71 membrane expression", "setting": "[2]; as early as D7, FIG. 4B", "result": "up to 40%"}]}
